For one test, the system named is NCI H552. Briefly: Cell-based proliferation assay for determination of GI50 values, lung cancer cell line. The note with it: Homo sapiens; 96 h treatment, cyquant cell proliferation assay; read-out: Cellular activities GI50, NCI H552. How it is done:
(§1) Cell-based Proliferation assay for determination of GI50 values
(§2) Three different cancer cell lines were obtained from ATCC: Human colon cancer cell line (Colo205), human breast cancer cell lines (MDA-MB435), and human lung cancer cell line (NCl-H522). Colo205 cells and NCl-H522 were cultivated in RPMI 1640 containing 2 mM
(§3) L-Glutamine, 5% FBS, 1.0 mM Na Pyruvate. MDA-MB435 cells were cultivated in DMEM containing 2 mM L-Glutamine, 5% FBS. Colo205 cells were seeded in 96-wells plate at 2000 and 5000 cells per well respectively. MDA-MB435 and NCl-H522 cells were seeded in 96-wells plate at 6000 cells per well. The plates were incubated at 37° C., 5% CO2, for 24 h. Cells were treated with compounds at various concentrations for 96 h. Cell growth was then monitored using cyquant cell proliferation assay (Invitrogen Pte Ltd). Dose response curves were plotted to determine GI50 values for the compounds using XL-fit (ID Business Solution, Emeryville, Calif.).

For another test, the system named is Colo205. Briefly: Cell-based proliferation assay for determination of GI50 values, colon cancer cell line. The settings on record: Homo sapiens, COLO 205; 96 h treatment, cyquant cell proliferation assay; read-out: Cellular activities GI50, Colo205. As to the method: as §1, §2, §3

In general, GI50 refers to the concentration that inhibits growth by half.

With `CC(C)(C)OC(=O)N1CCN(c2ccc(C(=O)Nc3nc(-c4ccc(CC(=O)NO)s4)cs3)cc2)CC1` [Example 9], the GI50 was 3.01 µM in the test on NCI H552 and 5.47 µM with Colo205.

Values taken from patent publication US20070167499A1, “Biaryl linked hydroxamates: preparation and pharmaceutical applications” (A*BIO Pte Ltd., priority 2003, published 2007).
